Read-outs that look alike come from different tables or passages of the source. Where a SMILES comes first, the peptide text is derived from it. [ ]: non-standard residue; d: D form. The star is where a group is joined. Malonyl(2,2-Me2,histaminyl) = CC(C)(C(=O)NCCc1cnc[nH]1)C(=O)*; d(hArg) = N=C(N)NCCCC[C@@H](N)C(=O)O; Gly(NCH2CH2Ph) = O=C(O)CNCCc1ccccc1; Hyp = O=C(O)[C@@H]1C[C@@H](O)CN1; hArg = N=C(N)NCCCC[C@H](N)C(=O)O; NMeN = CN[C@@H](CC(N)=O)C(=O)O; Aoc(2) = CCCCCC[C@H](N)C(=O)O; Phg = N[C@H](C(=O)O)c1ccccc1; Nle = CCCC[C@H](N)C(=O)O
Assays:
[1] = target: T1, human orexin type 2 receptor (hOX2R) (Homo sapiens, UniProt O43614); test: Measurement of orexin type 2 receptor agonist activity (CHO cells, FLIPR TETRA intracellular Ca2+); format: cell-based
T1 construct: expressed in transfected cells
T1 sequence (O43614 1-444): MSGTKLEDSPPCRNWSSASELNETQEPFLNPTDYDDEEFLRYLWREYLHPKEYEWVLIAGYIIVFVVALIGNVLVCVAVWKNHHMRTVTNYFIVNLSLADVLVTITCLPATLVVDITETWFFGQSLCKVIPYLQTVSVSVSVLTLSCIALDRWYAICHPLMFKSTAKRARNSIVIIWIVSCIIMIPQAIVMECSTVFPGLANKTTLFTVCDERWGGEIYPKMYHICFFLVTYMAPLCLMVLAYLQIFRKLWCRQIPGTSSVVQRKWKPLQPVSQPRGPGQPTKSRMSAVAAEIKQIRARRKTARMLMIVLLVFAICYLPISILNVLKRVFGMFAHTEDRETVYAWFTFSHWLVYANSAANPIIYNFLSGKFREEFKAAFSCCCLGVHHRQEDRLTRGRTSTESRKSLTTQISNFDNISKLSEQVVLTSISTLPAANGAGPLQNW
From the text: (§1) In some embodiments, the assay uses cells stably expressing either human orexin type 2 or human orexin type 1 receptor. In some embodiments, the cells are obtained by inserting the Orexin receptor cDNA into pcDNA3.1(+) plasmid vector, identifying clones by G418 drug resistance selection, and/or growing a single clone for OX2R-CHO and OX1R-CHO in bulk. In some embodiments, the assay is detected using Fluorescent Imaging Plate Reader TETRA (FLIPR TETRA: manufactured by Molecular Devices). In some embodiments, the agonist activity of the test peptide is calculated assuming that the fluorescence value of the well containing only the dilution buffer is 0% and the fluorescence value of the well containing 10 nM human orexin A (Tocris) buffer is 100%.
(§2) Stable cell line generation. Obtainment of cells stably expressing either human orexin type 2 or human orexin type 1 receptor: to obtain a stable cell line the Orexin receptor cDNA was inserted into pcDNA3.1(+) plasmid vector and clones identified by G418 drug resistance selection. […] A single clone for OX2R-CHO and OX1R-CHO were grown in bulk and frozen to generate a cell bank for routine screening.
(§3) Measurement of orexin type 2 receptor agonist activity. Chinese hamster ovary (CHO) cells expressing human orexin type 2 receptor (hOX2R) seeded in each well of 384 well black clear bottom plates (BD Flacon) at 10,000 cells per well and cultured for 24 h in an Ham's F12 (Gibco) medium containing 10% fetal calf serum (Sigma Aldrich) under the conditions of 37° C., 5% CO2. After removal of the medium, 50 μL of assay buffer 1 (0.1% bovine serum albumin (Sigma Aldrich), 20 mM HEPES (Molecular Dimensions), […] probenecid (Sigma Aldrich), 1× Calcium 5 dye (Molecular Devices) in Hank's balanced salt solution (Invitrogen)) was added, and the cells were incubated for 60 min under the conditions of 37° C., 5% CO2. A test peptide was dissolved in dimethyl sulfoxide (Sigma Aldrich) to 1 mM, and then diluted with assay buffer 2 (20 mM HEPES, Hank's balanced salt solution, 0.1% bovine serum albumin). For the reaction, a test peptide solution (10 μl) was added using Fluorescent Imaging Plate Reader TETRA (FLIPR TETRA: manufactured by Molecular Devices), a fluorescence value (excitation wavelength 488 nm, measurement wavelength 570 nm) of each well was measured every one second for 2 min, and the agonist activity was determined using the area of the fluorescence value as an indicator of intracellular Ca^2+ concentration. The agonist activity of the test peptide was calculated assuming that the fluorescence value of the well added with only the dilution buffer was 0% and the fluorescence value of the well added with 10 nM human orexin A (Tocris) buffer was 100%. As used herein, Emax indicates the value at 1 μM concentration when orexin A is converted to a full agonist (maximum value of agonist activity: 100%).

[2] = target: T2, human orexin type 1 receptor (hOX1R) (Homo sapiens, UniProt O43613); test: Measurement of orexin type 1 receptor agonist activity (CHO cells, FLIPR TETRA intracellular Ca2+); format: cell-based
T2 construct: expressed in transfected cells
T2 sequence (O43613 1-425): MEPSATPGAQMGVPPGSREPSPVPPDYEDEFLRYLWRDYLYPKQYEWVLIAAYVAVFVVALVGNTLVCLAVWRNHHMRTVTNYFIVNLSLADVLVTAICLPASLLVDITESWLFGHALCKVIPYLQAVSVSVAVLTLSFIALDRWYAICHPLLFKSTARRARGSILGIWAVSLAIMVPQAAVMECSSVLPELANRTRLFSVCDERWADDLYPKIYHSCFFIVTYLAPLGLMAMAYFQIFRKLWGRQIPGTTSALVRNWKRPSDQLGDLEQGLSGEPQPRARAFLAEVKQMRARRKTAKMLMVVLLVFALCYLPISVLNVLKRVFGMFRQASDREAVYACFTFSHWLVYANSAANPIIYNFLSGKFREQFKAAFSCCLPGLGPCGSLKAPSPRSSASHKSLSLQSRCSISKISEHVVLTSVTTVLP
From the text: as §1, §2
as §3, with “type 1” for “type 2”, “receptor (hOX1R) were” for “receptor (hOX2R)”

[3] = CHO cells expressing hOX2R, Ca2+ fluorescence, read-out: hOX2 pEC50 (converted)
[4] = CHO cells expressing hOX1R, Ca2+ fluorescence, read-out: hOX1 pEC50 (converted)

Row | EC50 [1, 3] [nM] | EC50 [2, 4] [nM] | Compound | EC50 [1] [nM] | EC50 [2] [nM]
1 | < 0.1 | > 10 | CCCC[C@H](NC(=O)[C@@H](NC(=O)[C@H](CC(C)C)NC(=O)[C@@H](NC(=O)CNC(=O)[C@@H](NC(=O)[C@H](C)NC(=O)[C@H](Cc1c[nH]cn1)NC(=O)[C@H](CC(N)=O)NC(=O)CNC(=O)[C@H](CO)NC(=O)[C@H](C)NC(=O)[C@H](Cc1c[nH]c2ccccc12)NC(=O)[C@@H](CC(C)C)NC(=O)[C@@H](N)CC(C)C)c1ccccc1)[C@@H](C)CC)[C@@H](C)O)C(N)=O [compound 11] (H-L[dL]WASGNHA[Phg]GILT[Nle]-NH2) | – | –
2 | < 0.1 | > 10 | CCCC[C@H](NC(=O)[C@@H](NC(=O)[C@H](CC(C)C)NC(=O)[C@@H](NC(=O)CNC(=O)[C@H](C)NC(=O)[C@H](C)NC(=O)[C@H](Cc1c[nH]cn1)NC(=O)[C@H](CC(N)=O)NC(=O)CNC(=O)[C@H](CO)NC(=O)[C@@H](C)NC(=O)[C@@H](Cc1ccccc1)NC(=O)[C@H](CC(C)C)NC(=O)[C@@H](N)CC(C)C)[C@@H](C)CC)[C@@H](C)O)C(N)=O [compound 12] (H-LL[dF][dA]SGNHAAGILT[Nle]-NH2) | – | –
3 | < 0.1 | > 10 | CCCC[C@H](NC(=O)[C@@H](NC(=O)[C@H](CC(C)C)NC(=O)[C@@H](NC(=O)CNC(=O)[C@H](C)NC(=O)[C@H](C)NC(=O)[C@H](Cc1c[nH]cn1)NC(=O)[C@H](CC(N)=O)NC(=O)CNC(=O)[C@H](CO)NC(=O)[C@@H](C)NC(=O)[C@@H](Cc1ccccc1)NC(=O)[C@H](CC(C)C)NC(=O)[C@@H](N)Cc1ccccc1)[C@@H](C)CC)[C@@H](C)O)C(N)=O [compound 13] (H-FL[dF][dA]SGNHAAGILT[Nle]-NH2) | – | –
4 | < 0.1 | > 10 | CCCC[C@H](NC(=O)[C@@H](NC(=O)[C@H](CC(C)C)NC(=O)[C@@H](NC(=O)CNC(=O)[C@H](C)NC(=O)[C@H](C)NC(=O)[C@H](Cc1c[nH]cn1)NC(=O)[C@H](CC(N)=O)NC(=O)CNC(=O)[C@H](CO)NC(=O)[C@@H](C)NC(=O)[C@@H](Cc1ccccc1)NC(=O)[C@@H](CC(C)C)NC(=O)[C@@H](N)CC(C)C)[C@@H](C)CC)[C@@H](C)O)C(N)=O [compound 14] (H-L[dL][dF][dA]SGNHAAGILT[Nle]-NH2) | – | –
5 | < 0.1 | 1 to 10 | CCCCCC[C@H](NC(=O)[C@@H](NC(=O)[C@H](CC(C)C)NC(=O)[C@@H](NC(=O)CNC(=O)[C@@H](NC(=O)[C@H](C)NC(=O)[C@@H]1C[C@@H](O)CN1C(=O)[C@H](CC(N)=O)NC(=O)CN(CCc1ccccc1)C(=O)[C@H](CCCNC(=N)N)NC(=O)[C@H](CCCNC(=N)N)NC(=O)[C@@H]1C[C@@H](O)CN1C(=O)[C@@H]1C[C@@H](O)CN1C(=O)[C@@H]1C[C@@H](O)CN1)c1ccccc1)[C@@H](C)CC)[C@@H](C)O)C(N)=O [compound 15] (H-[Hyp][Hyp][Hyp]RR[Gly(NCH2CH2Ph)]N[Hyp]A[Phg]GILT[Aoc(2)]-NH2) | – | –

More lines, now with the values behind:

Row | Compound | EC50 [1, 3] [nM] | EC50 [2, 4] [nM] | EC50 [1] [nM] | EC50 [2] [nM]
6 | CCCCCC[C@H](NC(=O)[C@@H](NC(=O)[C@H](CC(C)C)NC(=O)[C@@H](NC(=O)CNC(=O)[C@@H](NC(=O)[C@H](C)NC(=O)[C@@H]1C[C@@H](O)CN1C(=O)[C@H](CC(N)=O)N(C)C(=O)CN(CCc1ccccc1)C(=O)[C@H](CCCNC(=N)N)NC(=O)[C@@H]1CCCN1C(=O)[C@@H](CCCCNC(=N)N)NC(=O)[C@@H](CCC(N)=O)NC(=O)C(C)(C)C(=O)NCCc1cnc[nH]1)c1ccccc1)[C@@H](C)CC)[C@@H](C)O)C(N)=O [compound 7] ({Malonyl(2,2-Me2,histaminyl)}-[dQ][d(hArg)]PR[Gly(NCH2CH2Ph)][NMeN][Hyp]A[Phg]GILT[Aoc(2)]-NH2) | – | – | < 0.1 | > 10
7 | CCCCCC[C@H](NC(=O)[C@@H](NC(=O)[C@H](CC(C)C)NC(=O)[C@@H](NC(=O)CNC(=O)[C@@H](NC(=O)[C@H](C)NC(=O)[C@@H]1C[C@@H](O)CN1C(=O)[C@H](CC(N)=O)N(C)C(=O)CN(CCc1ccccc1)C(=O)[C@H](CCCCN)NC(=O)[C@@H]1CCCN1C(=O)[C@H](CCCCNC(=N)N)NC(=O)[C@H](CCC(N)=O)NC(=O)C(C)(C)C(=O)NCCc1cnc[nH]1)c1ccccc1)[C@@H](C)CC)[C@@H](C)O)C(N)=O [compound 8] ({Malonyl(2,2-Me2,histaminyl)}-Q[hArg]PK[Gly(NCH2CH2Ph)][NMeN][Hyp]A[Phg]GILT[Aoc(2)]-NH2) | – | – | < 0.1 | > 10
8 | CCCCCC[C@H](NC(=O)[C@@H](NC(=O)[C@H](CC(C)C)NC(=O)[C@@H](NC(=O)CNC(=O)[C@@H](NC(=O)[C@H](C)NC(=O)[C@@H]1C[C@@H](O)CN1C(=O)[C@H](CC(N)=O)NC(=O)CN(CCc1ccccc1)C(=O)[C@H](CCCNC(=N)N)NC(=O)[C@@H]1C[C@@H](O)CN1C(=O)[C@@H]1C[C@@H](O)CN1C(=O)[C@@H]1C[C@@H](O)CN1)c1ccccc1)[C@@H](C)CC)[C@@H](C)O)C(N)=O [compound 9] (H-[Hyp][Hyp][Hyp]R[Gly(NCH2CH2Ph)]N[Hyp]A[Phg]GILT[Aoc(2)]-NH2) | < 0.1 | > 10 | – | –
9 | CCCC[C@H](NC(=O)[C@@H](NC(=O)[C@H](CC(C)C)NC(=O)[C@@H](NC(=O)CNC(=O)[C@@H](NC(=O)[C@H](C)NC(=O)[C@H](Cc1c[nH]cn1)NC(=O)[C@H](CC(N)=O)NC(=O)CNC(=O)[C@H](CO)NC(=O)[C@H](C)NC(=O)[C@H](Cc1c[nH]c2ccccc12)NC(=O)[C@@H](CC(C)C)NC(=O)[C@@H](N)Cc1ccccc1)c1ccccc1)[C@@H](C)CC)[C@@H](C)O)C(N)=O [compound 10] (H-F[dL]WASGNHA[Phg]GILT[Nle]-NH2) | < 0.1 | > 10 | – | –
